Experimental data published in PubChem BioAssay (NCI).
Several values for one entry are separate records, joined by “and”; a condition that tells them apart may be missing. Equal values may be shown once.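 Growth conditions: 96-well plates. Treatment: test compound, 48 hours, 5 concentrations. Analysis: linear interpolation between bracketing concentrations; unreached endpoints set to highest concentration. GI50 marks 50% less growth. TGI is the concentration that stops growth completely.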

What was measured:
Experiment in all cases: NCI tumour cell line growth inhibition, 48 h
NCI-H23 lung = tested on: NCI-H23 lung
SW-620 colon = tested on: SW-620 colon
DMS 114 small cell lung = tested on: DMS 114 small cell lung
KM20L2 colon = tested on: KM20L2 colon
MALME-3M melanoma = tested on: MALME-3M melanoma
K-562 leukemia = tested on: K-562 leukemia
SF-295 CNS = tested on: SF-295 CNS
OVCAR-5 ovarian = tested on: OVCAR-5 ovarian
UACC-257 melanoma = tested on: UACC-257 melanoma
SNB-19 CNS = tested on: SNB-19 CNS
A498 renal = tested on: A498 renal
OVCAR-4 ovarian = tested on: OVCAR-4 ovarian
CAKI-1 renal = tested on: CAKI-1 renal
TK-10 renal = tested on: TK-10 renal
KM12 colon = tested on: KM12 colon
SN12C renal = tested on: SN12C renal
XF 498 CNS = tested on: XF 498 CNS
M14 melanoma = tested on: M14 melanoma
ACHN renal = tested on: ACHN renal
DLD-1 colon = tested on: DLD-1 colon
SNB-78 CNS = tested on: SNB-78 CNS
UO-31 renal = tested on: UO-31 renal
LXFL 529 NSCLC = tested on: LXFL 529 NSCLC
SF-268 CNS = tested on: SF-268 CNS
EKVX NSCLC = tested on: EKVX NSCLC
COLO 205 colon = tested on: COLO 205 colon
MOLT-4 leukemia = tested on: MOLT-4 leukemia
HCT-116 colon = tested on: HCT-116 colon
NCI-H460 lung = tested on: NCI-H460 lung
SK-OV-3 ovarian = tested on: SK-OV-3 ovarian
NCI-H522 lung = tested on: NCI-H522 lung
HT29 colon = tested on: HT29 colon
OVCAR-8 ovarian = tested on: OVCAR-8 ovarian
HCT-15 colon = tested on: HCT-15 colon
RPMI-8226 leukemia = tested on: RPMI-8226 leukemia
OVCAR-3 ovarian = tested on: OVCAR-3 ovarian
SNB-75 CNS = tested on: SNB-75 CNS
HOP-18 NSCLC = tested on: HOP-18 NSCLC
U251 CNS = tested on: U251 CNS
A549 NSCLC = tested on: A549 NSCLC
SK-MEL-28 melanoma = tested on: SK-MEL-28 melanoma
786-0 renal = tested on: 786-0 renal
SK-MEL-2 melanoma = tested on: SK-MEL-2 melanoma
UACC-62 melanoma = tested on: UACC-62 melanoma
IGROV1 ovarian = tested on: IGROV1 ovarian
CCRF-CEM leukemia = tested on: CCRF-CEM leukemia
SK-MEL-5 melanoma = tested on: SK-MEL-5 melanoma
HOP-62 NSCLC = tested on: HOP-62 NSCLC
HCC-2998 colon = tested on: HCC-2998 colon
M19-MEL melanoma = tested on: M19-MEL melanoma
SF-539 CNS = tested on: SF-539 CNS
PC-3 prostate = tested on: PC-3 prostate
NCI-H226 lung = tested on: NCI-H226 lung
DMS 273 small cell lung = tested on: DMS 273 small cell lung
T-47D breast = tested on: T-47D breast
DU-145 prostate = tested on: DU-145 prostate
LOX IMVI melanoma = tested on: LOX IMVI melanoma
MDA-N = tested on: MDA-N
MCF7 breast = tested on: MCF7 breast
HOP-92 NSCLC = tested on: HOP-92 NSCLC
BT-549 breast = tested on: BT-549 breast
SR leukemia = tested on: SR leukemia
MDA-MB-231 breast = tested on: MDA-MB-231 breast
HS 578T breast = tested on: HS 578T breast
MDA-MB-435 = tested on: MDA-MB-435
HL-60(TB) leukemia = tested on: HL-60(TB) leukemia
RXF 393 renal = tested on: RXF 393 renal
NCI/ADR-RES ovarian = tested on: NCI/ADR-RES ovarian

## COc1cc2c(cc1OC)C(=O)Cc1ccc3c(c1CNCC2)OCO3
NCI-H23 lung
  TGI: > 100 µM
SW-620 colon
  TGI: > 100 µM
DMS 114 small cell lung
  TGI: > 100 µM
KM20L2 colon
  TGI: > 100 µM
MALME-3M melanoma
  TGI: > 100 µM
K-562 leukemia
  TGI: > 100 µM
SF-295 CNS
  TGI: > 100 µM
OVCAR-5 ovarian
  TGI: > 100 µM
UACC-257 melanoma
  TGI: > 100 µM
SNB-19 CNS
  TGI: > 100 µM
A498 renal
  TGI: > 100 µM
OVCAR-4 ovarian
  TGI: > 100 µM
CAKI-1 renal
  TGI: > 100 µM
TK-10 renal
  TGI: > 100 µM
KM12 colon
  TGI: > 100 µM
SN12C renal
  TGI: > 100 µM
XF 498 CNS
  TGI: > 100 µM
M14 melanoma
  TGI: > 100 µM
ACHN renal
  TGI: > 100 µM
DLD-1 colon
  TGI: > 100 µM
SNB-78 CNS
  TGI: > 100 µM
UO-31 renal
  TGI: > 100 µM
LXFL 529 NSCLC
  TGI: > 100 µM
SF-268 CNS
  TGI: > 100 µM
EKVX NSCLC
  TGI: > 100 µM
COLO 205 colon
  TGI: > 100 µM
MOLT-4 leukemia
  TGI: > 100 µM
HCT-116 colon
  TGI: > 100 µM
NCI-H460 lung
  TGI: > 100 µM
SK-OV-3 ovarian
  TGI: > 100 µM
NCI-H522 lung
  TGI: > 100 µM
HT29 colon
  TGI: > 100 µM
OVCAR-8 ovarian
  TGI: > 100 µM
HCT-15 colon
  TGI: > 100 µM
RPMI-8226 leukemia
  TGI: > 100 µM
OVCAR-3 ovarian
  TGI: > 100 µM
SNB-75 CNS
  TGI: > 100 µM
HOP-18 NSCLC
  TGI: > 100 µM
U251 CNS
  TGI: > 100 µM
A549 NSCLC
  TGI: > 100 µM
SK-MEL-28 melanoma
  TGI: > 100 µM
786-0 renal
  TGI: > 100 µM
SK-MEL-2 melanoma
  TGI: > 100 µM
UACC-62 melanoma
  TGI: > 100 µM
IGROV1 ovarian
  TGI: > 100 µM
CCRF-CEM leukemia
  TGI: > 100 µM
SK-MEL-5 melanoma
  TGI: > 100 µM
HOP-62 NSCLC
  TGI: > 100 µM
HCC-2998 colon
  TGI: > 100 µM
M19-MEL melanoma
  TGI: > 100 µM
SF-539 CNS
  TGI: > 100 µM

## CC[C@@]1(O)C[C@H](OC2CC(N(C)C)C(OC3CC(O)C(OC4CCC(=O)C(C)O4)C(C)O3)C(C)O2)c2c(cc3c(c2O)C(=O)c2c(O)ccc(O)c2C3=O)[C@H]1C(=O)OC (stereo not given in full)
PC-3 prostate
  TGI: 0.0062 µM
NCI-H226 lung
  TGI: 0.00641 µM and 0.0275 µM
DMS 114 small cell lung
  GI50: 0.000291 µM
  TGI: 0.022 µM and 0.0306 µM and 0.0347 µM
KM20L2 colon
  GI50: 0.0667 nM
  TGI: 0.0781 µM and 0.041 µM and 0.2 µM
K-562 leukemia
  TGI: 0.119 µM
OVCAR-5 ovarian
  TGI: 0.0221 µM and 0.065 µM
UACC-257 melanoma
  GI50: < 0.0001 µM
A498 renal
  TGI: 0.0142 µM and 0.0245 µM
KM12 colon
  TGI: 0.0314 µM and 0.0126 µM and 0.113 µM
DMS 273 small cell lung
  TGI: 0.014 µM and 0.0198 µM
M14 melanoma
  TGI: 0.0185 µM and 0.0374 µM and 0.152 µM
ACHN renal
  TGI: 0.0164 µM and 0.0258 µM and 0.0225 µM
DLD-1 colon
  TGI: 0.0737 µM
SNB-78 CNS
  GI50: 0.00311 µM
UO-31 renal
  TGI: 0.000508 µM and < 0.0001 µM
LXFL 529 NSCLC
  GI50: 0.0112 nM
T-47D breast
  TGI: 0.00569 µM and 0.0121 µM
HCT-116 colon
  GI50: 0.054 nM
  TGI: < 0.0001 µM
NCI-H460 lung
  GI50: 0.0541 nM
  TGI: 0.000343 µM and < 0.0001 µM
DU-145 prostate
  TGI: 0.038 µM
LOX IMVI melanoma
  TGI: 0.000668 µM
MDA-N
  TGI: 0.00259 µM
SK-OV-3 ovarian
  GI50: 0.0221 µM
MCF7 breast
  TGI: 0.101 µM
HT29 colon
  TGI: 16.2 nM [middle of 4 runs]
HCT-15 colon
  TGI: 0.00581 µM and 0.0298 µM
HOP-92 NSCLC
  TGI: 0.0353 µM and 0.0713 µM and 0.092 µM
HOP-18 NSCLC
  GI50: 11.7 µM
  TGI: 24.1 µM
A549 NSCLC
  GI50: 0.000449 µM
SK-MEL-2 melanoma
  TGI: 0.0166 µM and 0.0198 µM and 0.0243 µM
UACC-62 melanoma
  TGI: 0.012 µM and 0.0118 µM and 0.0205 µM
CCRF-CEM leukemia
  TGI: 0.012 µM and 0.0478 µM
M19-MEL melanoma
  GI50: 1.25e-05 µM
  TGI: 0.0121 µM and 0.0129 µM and 0.0336 µM
BT-549 breast
  TGI: 0.00927 µM and 0.00276 µM

## O=S(=O)(O)c1cc(N=Nc2cc(S(=O)(=O)O)c3ccccc3c2O)ccc1/C=C/c1ccc(N=Nc2cc(S(=O)(=O)O)c3ccccc3c2O)cc1S(=O)(=O)O
NCI-H23 lung
  TGI: 975 µM
SW-620 colon
  TGI: > 1000 µM
SR leukemia
  GI50: 32.8 µM
  TGI: 70.6 µM
PC-3 prostate
  TGI: 986 µM
NCI-H226 lung
  TGI: 594 µM
DMS 114 small cell lung
  GI50: > 1000 µM
  TGI: > 1000 µM
MALME-3M melanoma
  TGI: > 494 µM
K-562 leukemia
  TGI: > 67.1 µM and 78.1 µM
SF-295 CNS
  TGI: > 731 µM
OVCAR-5 ovarian
  TGI: 472 µM
UACC-257 melanoma
  TGI: > 1000 µM
SNB-19 CNS
  TGI: > 1000 µM
MDA-MB-231 breast
  TGI: 82.1 µM
HS 578T breast
  TGI: 756 µM
OVCAR-4 ovarian
  GI50: > 807 µM
  TGI: > 1000 µM
CAKI-1 renal
  TGI: > 756 µM
TK-10 renal
  TGI: 220 µM
KM12 colon
  TGI: > 365 µM
SN12C renal
  TGI: > 1000 µM
XF 498 CNS
  GI50: > 1000 µM
  TGI: > 1000 µM
DMS 273 small cell lung
  GI50: > 1000 µM
  TGI: > 1000 µM
M14 melanoma
  TGI: > 355 µM
MDA-MB-435
  TGI: 258 µM
ACHN renal
  TGI: > 755 µM
DLD-1 colon
  GI50: > 1000 µM
  TGI: > 1000 µM
HL-60(TB) leukemia
  GI50: 43.4 µM
  TGI: 41.2 µM and 104 µM
SNB-78 CNS
  GI50: > 1000 µM
  TGI: > 1000 µM
UO-31 renal
  TGI: > 527 µM
LXFL 529 NSCLC
  TGI: > 1000 µM
SF-268 CNS
  TGI: > 1000 µM
EKVX NSCLC
  TGI: > 632 µM
T-47D breast
  TGI: > 1000 µM
COLO 205 colon
  TGI: > 380 µM
MOLT-4 leukemia
  GI50: 36.3 µM
  TGI: 51.1 µM and 82.5 µM
HCT-116 colon
  TGI: > 433 µM
NCI-H460 lung
  TGI: > 881 µM
DU-145 prostate
  TGI: 712 µM
LOX IMVI melanoma
  TGI: > 461 µM
MDA-N
  TGI: 359 µM
SK-OV-3 ovarian
  TGI: > 876 µM
MCF7 breast
  TGI: > 1000 µM
NCI-H522 lung
  TGI: > 669 µM
HT29 colon
  TGI: > 740 µM
OVCAR-8 ovarian
  TGI: > 1000 µM
HCT-15 colon
  GI50: 186 µM
  TGI: > 727 µM
RXF 393 renal
  TGI: > 1000 µM
HOP-92 NSCLC
  GI50: > 262 µM
  TGI: > 463 µM
RPMI-8226 leukemia
  TGI: > 311 µM
OVCAR-3 ovarian
  TGI: > 1000 µM
SNB-75 CNS
  TGI: > 736 µM
U251 CNS
  TGI: > 1000 µM
A549 NSCLC
  TGI: > 1000 µM
SK-MEL-28 melanoma
  TGI: > 1000 µM
786-0 renal
  TGI: > 1000 µM
SK-MEL-2 melanoma
  TGI: > 620 µM
NCI/ADR-RES ovarian
  TGI: > 1000 µM
UACC-62 melanoma
  TGI: > 628 µM
IGROV1 ovarian
  TGI: > 873 µM
CCRF-CEM leukemia
  GI50: 32.5 µM
  TGI: 42.5 µM and 92.7 µM
SK-MEL-5 melanoma
  TGI: 239 µM
HOP-62 NSCLC
  TGI: > 1000 µM
HCC-2998 colon
  GI50: > 1000 µM
  TGI: > 1000 µM
M19-MEL melanoma
  GI50: > 1000 µM
  TGI: > 1000 µM
SF-539 CNS
  TGI: > 667 µM
BT-549 breast
  TGI: 552 µM
